Results from US8103455B2, “Method of assessing the proliferation or differentiation behaviour of a population of target cells in a biological system” (Medical Research Council, priority 2006, dated 2012).

Legend:
Format in all cases: in vivo, mouse
[1] = tested on: epidermal progenitor cells (EPC) of tail epidermis; assay: Clone size distribution of EYFP-labelled epidermal progenitor cell clones after topical retinoid treatment, fitted to the model
Protocol: All animal experiments were conducted as specified by Home Office Project License. The generation of AhcreERT and R26EYFP/EYFP mice has been described previously^15,16. […] Epidermal wholemounts were prepared as described^14. For analysis of back epidermis, 60 μm cryosections were used.
(§1) Clone size was determined by Z stack confocal imaging of at least 50 clones containing at least one basal cell in each mouse at each time point. […] The percentage of Ki67 positive cells was determined by imaging at least 1500 basal cells in multiple fields from at least 3 mice.
(§2) All trans retinoic acid (Sigma) in ethanol, propanediol 70:30 was applied topically to tail skin and shaved back skin (0.5 ml each) 5 days a week for 3 months at 0.33 mM or daily for 2 weeks at 1 mM.
(§3) Two protocols were used: (1) Mice were induced and after a three month interval treated with either 0.33 mM all trans retinoic acid (ATRA) or vehicle alone for a further 3 months. (2) Mice were treated with 1 mM all trans retinoic acid (ATRA) or vehicle alone for 2 weeks, beginning immediately after induction.

[2] = tested on: basal cells of tail IFE; assay: Proliferation rate of basal cells by Ki67 staining; conditions: ATRA treated mice, topical; controls 16.5+/-2.2%
Protocol: as §1, §2, §3

[3] = tested on: mitotic spindles of tail IFE; assay: Analysis of mitotic spindle orientation in DAPI stained epidermal wholemounts; conditions: ATRA treatment, topical (3 months per figure legend)
Protocol: as §2, §3

CC1=C(/C=C/C(C)=C/C=C/C(C)=C/C(=O)O)C(C)(C)CCC1 [ATRA, all trans retinoic acid]
AD (asymmetric division) rate from fit of model to two cell clone distribution ([1]; at two weeks, both protocols, unchanged from wildtype): 84%
clone size ([1]; both protocols: 0.33 mM for 3 months starting 3 months after induction, 1 mM for 2 weeks from induction, versus vehicle): increase substantially
EPC division rate, factor of increase ([1]; fit of model to two cell clone distribution at two weeks, vehicle factor 1.4): 22
proliferation rate assessed by Ki67 staining (mean+/-sem) [2]: 57.0+/−3.7%
orientation of mitotic spindles [3]: did not alter the orientation of mitotic spindles
